The values below come from patent US11008622B2, “Biomarker for predicting sensitivity to EGFR-targeting agent, and use thereof” (THE ASAN FOUNDATION, priority 2014, dated 2021).

One data set concerns FZD4 and GPR101 genes. As to the kind of experiment: Real-time PCR of EGFR transactivation-related genes after RON inhibition. As to conditions: KM12C, RON siRNA 48 hours; FIG. 1E. It is filed as cell-based, human. The protocol: In order to perform the RT-PCR, Colo320HSR colon cancer cell line in which the RON was non-expressed was transfected with construct expressing the RONΔ160 as the RON active type form for 48 hours and KM12C colon cancer cell line in which the RON was activated was transfected with the RON siRNA for 48 hours. The RNA was extracted by using trizol (Cat.#15596-026, Life Technologies™), respectively. The extracted RNA was synthesized to cDNA by using a RT-PCR Kit (AccuPower RT PreMix, Bioneer). The difference in expression of the corresponding gene was verified by PCR (AccuPower PCRPreMix, Bioneer) by using the synthesized cDNA and a gene-specific primer and quantified by using a real-time PCR (LightCycler 480 SYBR Green, Roche).
The inventors analyzed the expression of the genes Adam11, Adam32, FZD4, GPER, and GPR101 associated with the EGFR transactivation with real-time PCR after artificially suppressing the RON activity by using an siRNA technique in the KM12C colon cancer cell line in which the RON was activated, in order to analyze the change aspect of the expression of the EGFR transactivation-related genes according to the RON inhibition.
In general terms: Quantitative PCR measures a nucleic acid by following its amplification.

Another data set has as its system EGFR. In words: EGFR phosphorylation by western blot after RON inhibition by siRNA. It is filed as cell-based, human. The protocol: In order to perform the western blot, a protein separated from each cell was separated through SDS-PAGE and transferred to polyscreen membranes (New England Nuclear, Boston, Mass., USA), reacted for 12 hours at 4° C. by using various antibodies (anti-phospho RON (MyBioSource, San Diego, Calif., USA), anti-phospho Tyrosine, anti-EGFR, anti-phospho EGFR (Cell signaling Technology, Beverly, Mass., USA), anti-RON, and anti-r-tubulin (Santa Cruz Biotechnology), and then washed with a 1×TBS-T buffer solution for 10 minutes three times. A suitable anti-rabbit-HRP or anti-mouse-HRP secondary antibody reacted for 2 hours at room temperature and was washed with the 1×TB S-T buffer solution for 10 minutes three times to verify the expression of the protein by using an ECL solution (Amersham, Buckinghamshire, UK).
The inventors verified the phosphorylation induction of the EGFR by performing the western blot, after artificially suppressing the RON by using a siRNA technique in the KM12C and HT29 colon cancer cell lines in which the RON was expressed and activated, in order to verify the change in activity of the EGFR protein by the activation of the RON protein. […]
Background: In western blotting, separated proteins are transferred to a membrane and probed.

“5′-ACUUUGUAGAGGAGUUUGAUU-3′ (listed as RNA, chemistry not given here) [RON siRNA]”: in the data set with FZD4 and GPR101 genes, the FZD4 gene expression entry is on record as “significantly reduced” and the GPR101 gene expression entry is on record as “significantly reduced”. Moreover, the “activity of the EGFR (phosphorylation)” value in the data set with EGFR (KM12C and HT29 colon cancer cell lines, FIG. 2B) is “decreased”. The “phosphorylation of the EGFR induced by the EGF” value in the data set with EGFR (KM12C, by EGF ligand treating time, FIG. 2C) was “decreased”.
